Experimental data taken from the supplement of paper PMC10307832.

Assays:
Assay in all cases: relative viability (nuclei count vs DMSO), 5 days (fraction); higher = more cells survive
Bicalutamide + Alpelisib = compound: CC(O)(CS(=O)(=O)c1ccc(F)cc1)C(=O)Nc1ccc(C#N)c(C(F)(F)F)c1 [Bicalutamide] + Cc1nc(NC(=O)N2CCC[C@H]2C(N)=O)sc1-c1ccnc(C(C)(C)C(F)(F)F)c1 [Alpelisib] (partner 2 µM)
Method in brief: (§1)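 Nuclei were stained with Hoechst during a one-step fixation (final 0.05% Triton X-100, 1% formaldehyde, 1 ug/ml Hoechst) carried out 5 days after dosing, then counted on 4× images. The cells, lung cancer lines in 1536-well plates, had been dosed by pin tool the day after seeding with one drug alone or a fixed anchor-drug dose plus five library-drug doses (not always all listed) in √10 steps. Relative viability is the nuclei count in treated wells divided by that in vehicle wells, and each value is the median of duplicate plates.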

[1] = compound: C(C(=O)C(=O)O)Br [Bromopyruvate] + CC1(C)CCC(c2ccc(Cl)cc2)=C(CN2CCN(c3ccc(C(=O)NS(=O)(=O)c4ccc(N[C@H](CCN5CCOCC5)CSc5ccccc5)c(S(=O)(=O)C(F)(F)F)c4)cc3)CC2)C1 [Navitoclax] (partner 0.5 µM)
Method in brief: as §1

[2] = compound: C(C(=O)C(=O)O)Br [Bromopyruvate] + CC(C)C[C@H](NC(=O)[C@H](Cc1ccccc1)NC(=O)c1cnccn1)B(O)O [Bortezomib] (partner 0.002 µM)
Method in brief: as §1

[3] = compound: C(C(=O)C(=O)O)Br [Bromopyruvate] + C[C@]1(O)C[C@@H](c2nc(-c3ccc4ccc(-c5ccccc5)nc4c3)c3c(N)nccn32)C1 [Linsitinib] (partner 1 µM)
Method in brief: as §1

Question: UMC-11 was tested. Which relative viability (Bicalutamide + Alpelisib; first compound 0.08 µM) did it give?
Answer: 1.05

Question: And the relative viability (Bicalutamide + Alpelisib; first compound 0.253 µM)?
Answer: 0.9

Question: And the relative viability (Bicalutamide + Alpelisib; first compound 0.8 µM)?
Answer: 1.12

Question: And the relative viability (Bicalutamide + Alpelisib; first compound 2.53 µM)?
Answer: 0.976

Question: And the relative viability ([1]; first compound 1 µM)?
Answer: 0.289

Question: And the relative viability ([1]; first compound 3.162 µM)?
Answer: 0.291

Question: And the relative viability ([1]; first compound 10 µM)?
Answer: 0.304

Question: And the relative viability ([1]; first compound 31.62 µM)?
Answer: 0.297

Question: And the relative viability ([1]; first compound 100 µM)?
Answer: 0.288

Question: And the relative viability ([2]; first compound 1 µM)?
Answer: 0.817

Question: What about the relative viability ([2]; first compound 3.162 µM) of the same cell line?
Answer: 0.79

Question: And the relative viability ([2]; first compound 10 µM)?
Answer: 0.846

Question: What about the relative viability ([2]; first compound 31.62 µM) of the same cell line?
Answer: 0.645

Question: What about the relative viability ([2]; first compound 100 µM) of the same cell line?
Answer: 0.721

Question: And the relative viability ([3]; first compound 1 µM)?
Answer: 1.03

Question: What about the relative viability ([3]; first compound 3.162 µM) of the same cell line?
Answer: 1.08

Question: What about the relative viability ([3]; first compound 10 µM) of the same cell line?
Answer: 0.884

Question: What about the relative viability ([3]; first compound 31.62 µM) of the same cell line?
Answer: 0.987

Question: What about the relative viability ([3]; first compound 100 µM) of the same cell line?
Answer: 1.03
